From patent US11124554B2, “Modified ligand-gated ion channels and methods of use” (Howard Hughes Medical Institute, priority 2016, dated 2021)
Like-named read-outs stand apart in the source and are kept apart here.

Assays:
[1] = target: T1, α7^L131A-GlyR (Homo sapiens, UniProt P36544, L131A); assay: Agonist potency at chimeric channel (Table 9); assay type: cell-based
T1 construct: expressed in transfected cells

[2] = target: T2, α7^L131V-GlyR (Homo sapiens, UniProt P36544, L131V); assay: Agonist potency at chimeric channel (Table 9); assay type: cell-based
T2 construct: expressed in transfected cells
T2 sequence (P36544 with tags, fused parts or gaps L131V): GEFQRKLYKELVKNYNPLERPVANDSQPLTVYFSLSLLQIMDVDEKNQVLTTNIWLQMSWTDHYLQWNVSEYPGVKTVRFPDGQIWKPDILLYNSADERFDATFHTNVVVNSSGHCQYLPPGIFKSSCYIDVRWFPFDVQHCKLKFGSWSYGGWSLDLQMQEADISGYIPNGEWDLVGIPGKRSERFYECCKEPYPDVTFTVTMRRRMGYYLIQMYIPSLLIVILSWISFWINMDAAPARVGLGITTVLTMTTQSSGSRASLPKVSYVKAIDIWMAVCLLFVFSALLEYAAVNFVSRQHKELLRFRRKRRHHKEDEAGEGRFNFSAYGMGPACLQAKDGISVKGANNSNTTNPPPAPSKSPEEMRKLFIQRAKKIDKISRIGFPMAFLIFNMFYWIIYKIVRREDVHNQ

[3] = target: T3, α7-5HT3 (Homo sapiens, UniProt P36544, M226I/T225I); assay: Agonist potency (EC50), HEK cells expressing chimeric channel; assay type: cell-based, human α7 nAChR LBD, murine 5HT3 IPD
T3 construct: expressed in transfected cells; host or cells: HEK cells
T3 sequence (P36544 with tags, fused parts or gaps T225I/M226I): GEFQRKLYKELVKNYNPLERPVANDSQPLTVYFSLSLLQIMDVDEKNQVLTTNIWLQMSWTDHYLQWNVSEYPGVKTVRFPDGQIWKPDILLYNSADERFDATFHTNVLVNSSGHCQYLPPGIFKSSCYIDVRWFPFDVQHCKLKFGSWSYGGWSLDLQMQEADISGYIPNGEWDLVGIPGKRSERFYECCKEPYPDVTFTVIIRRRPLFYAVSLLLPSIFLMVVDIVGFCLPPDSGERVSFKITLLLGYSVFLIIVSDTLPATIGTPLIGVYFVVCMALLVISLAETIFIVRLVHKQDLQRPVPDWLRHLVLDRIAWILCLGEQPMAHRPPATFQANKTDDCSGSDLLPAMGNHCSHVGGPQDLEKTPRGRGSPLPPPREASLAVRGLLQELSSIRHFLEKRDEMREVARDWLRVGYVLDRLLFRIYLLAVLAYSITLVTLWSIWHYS

[4] = target: T4, α7^L141F,Y115F,G175K-GlyR (Homo sapiens, UniProt P36544, G175K/L141F/Y115F); assay: Agonist potency at chimeric channel; assay type: cell-based
T4 construct: expressed in transfected cells
T4 sequence (P36544 with tags, fused parts or gaps Y115F/L141F/G175K): as the sequence (P36544 with tags, fused parts or gaps L131V) above, with Y93F, V109L, L119F, G153K counted along it

[5] = target: T5, α7^Q79A-5HT3 (Homo sapiens, UniProt P36544, M226I/Q79A/T225I); assay: Agonist potency (EC50), HEK cells expressing chimeric channel; assay type: cell-based, human α7 nAChR LBD, murine 5HT3 IPD; details: read-out: Mean EC50, α7^Q79A-5HT3
T5 construct: expressed in transfected cells; host or cells: HEK cells
T5 sequence (P36544 with tags, fused parts or gaps Q79A/T225I/M226I): as the sequence (P36544 with tags, fused parts or gaps T225I/M226I) above, with Q57A counted along it

[6] = target: T6, α7^L131M-GlyR (Homo sapiens, UniProt P36544, L131M); assay: Agonist potency at chimeric channel (Table 9); assay type: cell-based
T6 construct: expressed in transfected cells
T6 sequence (P36544 with tags, fused parts or gaps L131M): as the sequence (P36544 with tags, fused parts or gaps L131V) above, with V109M counted along it

[7] = target: T7, α7^Q79G,G175K-GlyR (Homo sapiens, UniProt P36544, G175K/Q79G); assay: Agonist potency at chimeric channel; assay type: cell-based
T7 construct: expressed in transfected cells
T7 sequence (P36544 with tags, fused parts or gaps Q79G/G175K): as the sequence (P36544 with tags, fused parts or gaps L131V) above, with Q57G, V109L, G153K counted along it

[8] = target: T8, α7^G175K-GlyR (Homo sapiens, UniProt P36544, G175K); assay: Agonist potency at chimeric channel; assay type: cell-based
T8 construct: expressed in transfected cells
T8 sequence (P36544 with tags, fused parts or gaps G175K): as the sequence (P36544 with tags, fused parts or gaps L131V) above, with V109L, G153K counted along it

[9] = target: T9, α7^Y115F,G175K-GlyR (Homo sapiens, UniProt P36544, G175K/Y115F); assay: Agonist potency at chimeric channel; assay type: cell-based
T9 construct: expressed in transfected cells
T9 sequence (P36544 with tags, fused parts or gaps Y115F/G175K): as the sequence (P36544 with tags, fused parts or gaps L131V) above, with Y93F, V109L, G153K counted along it

[10] = tested on: α7GlyR chimeric channels with G175K and A298G mutations; assay type: cell-based, human
[11] = target: T10, α7^Q79G-GlyR (Homo sapiens, UniProt P36544, Q79G); assay: Agonist potency (EC50), HEK cells expressing chimeric channel; assay type: cell-based
T10 construct: expressed in transfected cells; host or cells: HEK cells
T10 sequence (P36544 with tags, fused parts or gaps Q79G): as the sequence (P36544 with tags, fused parts or gaps L131V) above, with Q57G, V109L counted along it

[12] = target: T11, α7^L131G,Q139L-GlyR (Homo sapiens, UniProt P36544, L131G/Q139L); assay: Agonist potency at chimeric channel (Table 9); assay type: cell-based
T11 construct: expressed in transfected cells
T11 sequence (P36544 with tags, fused parts or gaps L131G/Q139L): as the sequence (P36544 with tags, fused parts or gaps L131V) above, with V109G, Q117L counted along it

[13] = target: T12, α7^W77F,G175K-GlyR (Homo sapiens, UniProt P36544, G175K/W77F); assay: Agonist potency at chimeric channel; assay type: cell-based
T12 construct: expressed in transfected cells
T12 sequence (P36544 with tags, fused parts or gaps W77F/G175K): as the sequence (P36544 with tags, fused parts or gaps L131V) above, with W55F, V109L, G153K counted along it

[14] = target: T13, α7GlyR R27D E41R Q79G Y115F (Homo sapiens, UniProt P36544, E41R/Q79G/R27D/Y115F); assay: Agonist potency at chimeric channel (Table 7); assay type: cell-based
T13 construct: expressed in transfected cells
T13 sequence (P36544 with tags, fused parts or gaps R27D/E41R/Q79G/Y115F): as the sequence (P36544 with tags, fused parts or gaps L131V) above, with R5D, E19R, Q57G, Y93F, V109L counted along it

[15] = target: T14, α7^Q79S-5HT3 (Homo sapiens, UniProt P36544, M226I/Q79S/T225I); assay: Agonist potency (EC50), HEK cells expressing chimeric channel; assay type: cell-based, human α7 nAChR LBD, murine 5HT3 IPD; details: read-out: Mean EC50, α7^Q79S-5HT3
T14 construct: expressed in transfected cells; host or cells: HEK cells
T14 sequence (P36544 with tags, fused parts or gaps Q79S/T225I/M226I): as the sequence (P36544 with tags, fused parts or gaps T225I/M226I) above, with Q57S counted along it

[16] = target: T15, α7GlyR L131G D219A (Homo sapiens, UniProt P36544, D219A/L131G); assay: Agonist potency at chimeric channel (Table 9); assay type: cell-based
T15 construct: expressed in transfected cells
T15 sequence (P36544 with tags, fused parts or gaps L131G/D219A): as the sequence (P36544 with tags, fused parts or gaps L131V) above, with V109G, D197A counted along it

[17] = target: T16, α7GlyR Q79G Y115F G175K Y210F (Homo sapiens, UniProt P36544, G175K/Q79G/Y115F/Y210F); assay: Agonist potency at chimeric channel; assay type: cell-based
T16 construct: expressed in transfected cells
T16 sequence (P36544 with tags, fused parts or gaps Q79G/Y115F/G175K/Y210F): as the sequence (P36544 with tags, fused parts or gaps L131V) above, with Q57G, Y93F, V109L, G153K, Y188F counted along it

[18] = target: T17, α7^L131Q-GlyR (Homo sapiens, UniProt P36544, L131Q); assay: Agonist potency at chimeric channel (Table 9); assay type: cell-based
T17 construct: expressed in transfected cells
T17 sequence (P36544 with tags, fused parts or gaps L131Q): as the sequence (P36544 with tags, fused parts or gaps L131V) above, with V109Q counted along it

[19] = target: T18, α7^Q79G,Y115F,G175K-GlyR (Homo sapiens, UniProt P36544, G175K/Q79G/Y115F); assay: Agonist potency at chimeric channel; assay type: cell-based
T18 construct: expressed in transfected cells
T18 sequence (P36544 with tags, fused parts or gaps Q79G/Y115F/G175K): as the sequence (P36544 with tags, fused parts or gaps L131V) above, with Q57G, Y93F, V109L, G153K counted along it

[20] = target: T19, α7^G175K,Y210F-GlyR (Homo sapiens, UniProt P36544, G175K/Y210F); assay: Agonist potency at chimeric channel; assay type: cell-based
T19 construct: expressed in transfected cells
T19 sequence (P36544 with tags, fused parts or gaps G175K/Y210F): as the sequence (P36544 with tags, fused parts or gaps L131V) above, with V109L, G153K, Y188F counted along it

[21] = target: T20, α7^L131G-GlyR (Homo sapiens, UniProt P36544, L131G); assay: Agonist potency at chimeric channel (Table 9); assay type: cell-based
T20 construct: expressed in transfected cells
T20 sequence (P36544 with tags, fused parts or gaps L131G): as the sequence (P36544 with tags, fused parts or gaps L131V) above, with V109G counted along it

[22] = target: T21, α7^W77F,G175K,Y210F-GlyR (Homo sapiens, UniProt P36544, G175K/W77F/Y210F); assay: Agonist potency at chimeric channel; assay type: cell-based
T21 construct: expressed in transfected cells
T21 sequence (P36544 with tags, fused parts or gaps W77F/G175K/Y210F): as the sequence (P36544 with tags, fused parts or gaps L131V) above, with W55F, V109L, G153K, Y188F counted along it

[23] = target: T22, α7^Q79S-GlyR (Homo sapiens, UniProt P36544, Q79S); assay: Agonist potency (EC50), HEK cells expressing chimeric channel; assay type: cell-based
T22 construct: expressed in transfected cells; host or cells: HEK cells
T22 sequence (P36544 with tags, fused parts or gaps Q79S): as the sequence (P36544 with tags, fused parts or gaps L131V) above, with Q57S, V109L counted along it

[24] = target: T23, α7^W77F,Q79G,G175K-GlyR (Homo sapiens, UniProt P36544, G175K/Q79G/W77F); assay: Agonist potency at chimeric channel; assay type: cell-based
T23 construct: expressed in transfected cells
T23 sequence (P36544 with tags, fused parts or gaps W77F/Q79G/G175K): as the sequence (P36544 with tags, fused parts or gaps L131V) above, with W55F, Q57G, V109L, G153K counted along it

[25] = target: T24, α7^L131G,Y217F-GlyR (Homo sapiens, UniProt P36544, L131G/Y217F); assay: Agonist potency at chimeric channel (Table 9); assay type: cell-based
T24 construct: expressed in transfected cells
T24 sequence (P36544 with tags, fused parts or gaps L131G/Y217F): as the sequence (P36544 with tags, fused parts or gaps L131V) above, with V109G, Y195F counted along it

[26] = target: T25, α7^Q79S,L131G-GlyR (Homo sapiens, UniProt P36544, L131G/Q79S); assay: Agonist potency at chimeric channel (Table 9); assay type: cell-based
T25 construct: expressed in transfected cells
T25 sequence (P36544 with tags, fused parts or gaps Q79S/L131G): as the sequence (P36544 with tags, fused parts or gaps L131V) above, with Q57S, V109G counted along it

[27] = target: T26, α7^Q79G,Q139L,G175K-GlyR (Homo sapiens, UniProt P36544, G175K/Q139L/Q79G); assay: Agonist potency at chimeric channel; assay type: cell-based
T26 construct: expressed in transfected cells
T26 sequence (P36544 with tags, fused parts or gaps Q79G/Q139L/G175K): as the sequence (P36544 with tags, fused parts or gaps L131V) above, with Q57G, V109L, Q117L, G153K counted along it

[28] = target: T27, α7^L131G-5HT3 HC (Homo sapiens, UniProt P36544, L131G, form not given); assay: Agonist potency at chimeric channel (Table 9); assay type: cell-based; details: read-out: Agonist potency
T27 construct: rows headed: Agonist potency; other: α75HT3 L131G HC; α75HT3 L131G HC; fused on or other part: 5-HT3A receptor ion pore domain at the C-terminus
T27 sequence (P36544 23-224 L131G limits assumed, form open): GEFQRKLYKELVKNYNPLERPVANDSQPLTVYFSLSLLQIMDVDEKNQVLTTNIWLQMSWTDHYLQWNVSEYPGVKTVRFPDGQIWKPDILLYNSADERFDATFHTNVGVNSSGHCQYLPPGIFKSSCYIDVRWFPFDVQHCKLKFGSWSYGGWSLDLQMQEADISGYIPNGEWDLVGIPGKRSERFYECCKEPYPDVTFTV

[29] = target: T28, α7^L131F-GlyR (Homo sapiens, UniProt P36544, L131F); assay: Agonist potency at chimeric channel (Table 9); assay type: cell-based
T28 construct: expressed in transfected cells
T28 sequence (P36544 with tags, fused parts or gaps L131F): as the sequence (P36544 with tags, fused parts or gaps L131V) above, with V109F counted along it

T1 sequence (P36544 with tags, fused parts or gaps L131A): as the sequence (P36544 with tags, fused parts or gaps L131V) above, with V109A counted along it

Clc1ccc(C2CC3CCC2N3)cn1 (centres unmarked) [Epibatidine]
EC50 [1]: 27 nM
EC50 [2]: 210 nM
EC50 ([3]; read-out: Mean EC50, α7-5HT3, HEK cells, Table 1): 53 nM
EC50 [4]: 144 nM
EC50 ([5]; HEK cells, Table 1): 67 nM
EC50 [6]: 42 nM
EC50 [7]: 37 nM
EC50 [8]: 5 nM
EC50 [9]: 36 nM
EC50 ([10]; α7GlyR Q79G A298G G175K Y115F; read-out: Agonist potency): 11 nM
EC50 ([10]; α7GlyR Q79G A298G P2161; read-out: Agonist potency): 50 nM
EC50 ([10]; α7GlyR Q79G A298G Y115F K395 K396A; read-out: Agonist potency): 150 nM
EC50 ([10]; α7GlyR Q79G G175K A298G; read-out: Agonist potency): 2.3 nM
EC50 ([10]; α7GlyR Q79G W77F A298G; read-out: Agonist potency): 370 nM
EC50 [11]: 69 nM
EC50 [12]: 12 nM
EC50 [13]: 40 nM
EC50 [14]: 267 nM
EC50 ([15]; HEK cells, Table 1): 44 nM
EC50 [16]: 160 nM
EC50 [17]: > 10 µM
EC50 [18]: 27 nM
EC50 [19]: 220 nM
EC50 [20]: 650 nM
EC50 [21]: 9 nM
EC50 [22]: 380 nM
EC50 [23]: 24 nM
EC50 [24]: 2600 nM
EC50 [25]: 15 nM
EC50 [26]: 7 nM
EC50 [27]: 144 nM
EC50 ([28]; α75HT3 L131G HC): 9 nM

O=C(NC1CN2CCC1CC2)c1ccc(Cl)cc1 (centres unmarked) [PNU-282987]
EC50 [1]: 55 nM
EC50 [2]: 64 nM
EC50 ([3]; read-out: Mean EC50, α7-5HT3): 220 nM
EC50 ([3]; read-out: α7-5HT3 EC50): 220 nM
EC50 [4]: 510 nM
EC50 [5]: 37 nM
EC50 [6]: 21 nM
EC50 [7]: 60 nM
EC50 [29]: 200 nM
EC50 [8]: 5 nM
EC50 [9]: 100 nM
EC50 ([10]; read-out: Agonist potency; α7GlyR Q79G A298G G175K Y115F): 9 nM
EC50 ([10]; read-out: Agonist potency; α7GlyR Q79G A298G P2161): 250 nM
EC50 ([10]; read-out: Agonist potency; α7GlyR Q79G A298G Y115F K395 K396A): 110 nM
EC50 ([10]; read-out: Agonist potency; α7GlyR Q79G G175K A298G): 0.36 nM
EC50 ([10]; read-out: Agonist potency; α7GlyR Q79G W77F A298G): 1630 nM
EC50 [11]: 26 nM
EC50 [12]: 63 nM
EC50 [14]: 340 nM
EC50 [15]: 23 nM
EC50 [16]: 410 nM
EC50 [17]: > 1 µM
EC50 [18]: 48 nM
EC50 [19]: 80 nM
EC50 [20]: 700 nM
EC50 [21]: 34 nM
EC50 [22]: > 40000 nM
EC50 [23]: 14 nM
EC50 [24]: 500 nM
EC50 [25]: 54 nM
EC50 [26]: 6 nM
EC50 [27]: 50 nM
EC50 [28]: 33 nM
